# Measured values as given in US20090131468A1, “Bis-(Sulfonylamino) Derivatives in Therapy 065” (AstraZeneca AB, priority 2007, published 2009).
# Biological target: T1, human mPGES-1 (Homo sapiens, UniProt O14684)
# T1 sequence (O14684 1-152): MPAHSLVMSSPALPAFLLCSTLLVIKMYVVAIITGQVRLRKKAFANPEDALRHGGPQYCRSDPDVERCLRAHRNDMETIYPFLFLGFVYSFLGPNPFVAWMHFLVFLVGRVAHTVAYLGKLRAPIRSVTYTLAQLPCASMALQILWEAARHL
# Experiment: Microsomal prostaglandin E synthase biochemical assay
# Conditions: microsome preparation containing human mPGES-1; PGH2 10.8 μM, GSH 2.5 mM, pH 6.8; PGE2 quantified by HTRF; average of at least n=2
# Method in brief: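 Human mPGES-1 microsomes (from IL-1β-stimulated A549 cells or Sf9 cells expressing human mPGES-1) were pre-incubated 15 min with compound in potassium phosphate buffer pH 6.8 with GSH. PGH2 was then added, and the reaction was stopped after one minute with acidic ferric chloride/citrate. PGE2 was read by HTRF, and IC50 was taken from control-normalised activity.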
row,Structure (SMILES),IC50
1,"CC(C)(C)C#Cc1ncc(C(=O)NS(=O)(=O)c2ccccc2S(N)(=O)=O)cc1Cl [Example 149, 5-Chloro-6-(3,3-dimethylbut-1-ynyl)-N-(2-sulfamoylphenylsulfonyl)nicotinamide]",64 nM
2,"NS(=O)(=O)c1ccccc1S(=O)(=O)NC(=O)c1ccc(-c2cc3ccccc3o2)cc1C(F)(F)F [Example 150, 4-(Benzofuran-2-yl)-N-(2-sulfamoylphenylsulfonyl)-2-(trifluoromethyl)benzamide]",360 nM
3,"CC(C)(C)C#Cc1ccc(C(=O)NS(=O)(=O)c2ccccc2S(N)(=O)=O)c(C(F)(F)F)c1 [Example 151, 4-(3,3-Dimethylbut-1-ynyl)-N-(2-sulfamoylphenylsulfonyl)-2-(trifluoromethyl)-benzamide]",380 nM
4,"NS(=O)(=O)c1ccccc1S(=O)(=O)NC(=O)c1c(F)cc(-c2cc3ccccc3o2)cc1F [Example 152, 4-(Benzofuran-2-yl)-2,6-difluoro-N-(2-sulfamoylphenylsulfonyl)benzamide]",570 nM
5,"CC(C)(O)C#Cc1cc(C(=O)NS(=O)(=O)c2ccccc2S(N)(=O)=O)ccc1-c1cc2ccccc2o1 [Example 154, 4-(Benzofuran-2-yl)-3-(3-hydroxy-3-methylbut-1-ynyl)-N-(2-sulfamoylphenyl-sulfonyl)benzamide]",9.9 nM
6,"NS(=O)(=O)c1ccccc1S(=O)(=O)NC(=O)c1ccc(C#CC2CC2)c2c1OC(F)(F)O2 [Example 159, 7-(Cyclopropylethynyl)-2,2-difluoro-N-(2-sulfamoylphenylsulfonyl)-benzo[d][1,3]dioxole-4-carboxamide]",63 nM
7,"NS(=O)(=O)c1ccccc1S(=O)(=O)NC(=O)c1ccc(C#CC2CC2)c(OCCC(F)(F)F)c1 [Example 160, 4-(Cyclopropylethynyl)-N-(2-sulfamoylphenylsulfonyl)-3-(3,3,3-trifluoropropoxy)-benzamide]",32 nM
8,"NS(=O)(=O)c1cc(CO)ccc1S(=O)(=O)NC(=O)c1ccc(-c2cc3ccccc3o2)cc1 [Example 161, 4-(Benzofuran-2-yl)-N-(4-(hydroxymethyl)-2-sulfamoylphenylsulfonyl)benzamide]",320 nM

# More lines, in order of falling IC50, values ahead:
row,IC50,Structure (SMILES)
1,11000 nM,"NS(=O)(=O)c1ccccc1S(=O)(=O)NC(=O)c1cnc2ccccc2c1 [Example 162, Benzene-1,2-disulfonic acid 1-amide 2[(quinoline-3-carbonyl)-amide]]"
2,580 nM,"NS(=O)(=O)c1ccccc1S(=O)(=O)NC(=O)c1ccc2[nH]c(Cc3ccccc3)cc2c1 [Example 158, 2-Benzyl-N-(2-sulfamoylphenylsulfonyl)-1H-indole-5-carboxamide]"
3,330 nM,"NS(=O)(=O)c1ccccc1S(=O)(=O)NC(=O)c1c(F)cc(C#CC2CCCC2)cc1F [Example 153, 4-(Cyclopentylethynyl)-2,6-difluoro-N-(2-sulfamoylphenylsulfonyl)benzamide]"
4,110 nM,"CC(C)(O)C#Cc1cc(C(=O)NS(=O)(=O)c2ccccc2S(N)(=O)=O)ccc1OCc1ccccc1 [Example 156, 4-(Benzyloxy)-3-(3-hydroxy-3-methylbut-1-ynyl)-N-(2-sulfamoylphenylsulfonyl)-benzamide]"
5,54 nM,"NS(=O)(=O)c1ccccc1S(=O)(=O)NC(=O)c1cnc(-c2cc3ccccc3o2)c(Cl)c1 [Example 147, 6-(Benzofuran-2-yl)-5-chloro-N-(2-sulfamoylphenylsulfonyl)nicotinamide]"
6,22 nM,"NS(=O)(=O)c1ccccc1S(=O)(=O)NC(=O)c1cnc(C#CC2CCCC2)c(Cl)c1 [Example 148, 5-Chloro-6-(cyclopentylethynyl)-N-(2-sulfamoylphenylsulfonyl)nicotinamide]"
